# Marks after values point to notes of the source that are not given here.
# Legend:
# [1] = test system: hepatocyte growth factor (HGF); test: RT-PCR expression of hair-related gene HGF in dermal papilla cells; assay type: cell-based; conditions: 1 μg/mL minoxidil, 18 hours
# Protocol: (§1) RT-PCR (reverse transcription polymerase chain reaction) was conducted in order to investigate the effect on the expression of hair-related genes, insulin-like growth factor 1 (IGF-1), hepatocyte growth factor (HGF) and keratinocyte growth factor (KGF). Dermal papilla cells were seeded onto a 100-mm cell culture dish at a density of 80% and then cultured for 24 hours at 37° C. in a 5% CO2 incubator. DMEM (Dulbecco's modified Eagle's medium, BRL, USA) containing 10% bovine serum was used as a medium. After adding 100 μg/mL of a sample (Examples 1-1, 1-2, 1-3 and 1-4; Comparative Examples 1-1, 1-2 and 1-3; Examples 2-1, 2-2 and 2-3) or 1 μg/mL minoxidil as a positive control group, the cells were cultured for 18 hours and RNA was isolated by adding 1 mL of Trizol (Invitrogen, USA) according to the Promega's method. After quantifying RNA at 260 nm using a UV detector, RT-PCR was conducted. The RT-PCR was conducted using a RT-PCR kit (All-in-one RT-PCR kit, SuperBio, Korea) under the condition of 40 cycles of reverse transcription at 50° C. for 30 minutes followed by inactivation of reverse transcriptase at 96° C. for 3 minutes, 94° C. for 30 seconds, 58° C. for 30 seconds and 72° C. for 1 minute. The result was represented as percentage (%) of expression relative to the negative control group (Table 3).
# [2] = test system: insulin-like growth factor 1 (IGF-1); test: RT-PCR expression of hair-related gene IGF-1 in dermal papilla cells; assay type: cell-based; conditions: 1 μg/mL minoxidil, 18 hours
# Protocol: as §1
# [3] = test system: C57BL/6 mice depilated on the back; test: Animal experiment for hair growth-promoting effect in depilated mice; assay type: in vivo, mouse; conditions: 5 wt % minoxidil, 0.2 mL topical once a day
# Protocol: The hair growth-promoting effect of the composition of the present disclosure was investigated using C57BL/6 mice. 49- to 51-day-old C57BL/6N mice, in the second […], were depilated completely on the back using wax. While applying 0.2 mL of Example 2-1 or 2-3 at a solid content of 1 wt % or 20 wt %, or 5 wt % minoxidil as a positive control group, diluted in water, once a day for 16 days, hair-growing effect was monitored. Distilled water was used as a negative control group. The hair growth index with time was evaluated by the 3-point scale (see Table 4).
# [4] = test system: keratinocyte growth factor (KGF); test: RT-PCR expression of hair-related gene KGF in dermal papilla cells; assay type: cell-based; conditions: 1 μg/mL minoxidil, 18 hours
# Protocol: as §1
smiles,measurement,setting,value
"Nc1cc(N2CCCCC2)nc(N)[n+]1[O-] [Minoxidil, minoxidil]",HGF expression relative to the negative control group,[1],134.6%**
same,IGF-1 expression relative to the negative control group,[2],119.0%**
same,Hair growth index (3-point scale),[3]; Day 0,0 points
same,Hair growth index (3-point scale),[3]; Day 12,1.22 ± 0.26 points
same,Hair growth index (3-point scale),[3]; Day 16,2.66 ± 0.23 points
same,KGF expression relative to the negative control group,[4],120.2%**

# From patent US11896706B2, “Composition for preventing hair loss or promoting hair growth, comprising, as active ingredient, mixed extract of cucumber, eggplant and snail extracts as active ingredient” (OGADAL INC., priority 2020, dated 2024)
